Data taken from patent publication US9476870B2, “Methods and agents for screening for compounds capable of modulating gene expression” (PTC Therapeutics, Inc., priority 2003, dated 2016).

What was measured:
FGF-2 and IGF-1 = assay: ELISA assays for expression of angiogenesis factors in HeLa cells; type: cell-based; settings: Homo sapiens, read-out: EC50 for inhibition of all these cytokines
Protocol: Compounds that target multiple angiogenesis factors (including VEGF) for the treatment of cancers are also identifiable. Several targets are used for these purposes, including TNF-α, FGF-2, G-CSF, IGF-1, PDGF, and HIF-1α. ELISA assays analyze levels of expression of these factors using commercially available kits from R&D Systems (Minneapolis, Minn.). UTR-specific HTS identified compounds are tested for their ability to inhibit the expression of a subset of these proteins, including FGF-2 and IGF-1 in HeLa cells.

VEGF UTRs = assay: luciferase reporter inhibition in B9 (VEGF 5' and 3' UTRs) versus B12 (control UTRs) stable cell lines; type: cell-based, human; settings: about 10^-1 nM to about 10^4 nM
Protocol: A monocistronic reporter construct (pLuc/vegf5′+3′UTR) is under the transcriptional control of the CMV promoter and contains the VEGF 5′ UTR driving the luciferase reporter upstream of the VEGF 3′UTR. Stable cell lines are generated by transfecting 293 cells with the pLuc/vegf5′+3′UTR construct. A stable cell line is cultured under hygromycin B selection to create clonal cell lines consistent with protocols well known in the art. After two weeks of selection, clonal cell lines are screened for luciferase activity. The luciferase activity of several clonal cell lines (hereafter “Clones”) are compared and normalized against total protein content. Clones are maintained under hygromycin B selection for more than three months with intermittent monitoring of luciferase activity. Clones are stable and maintain a high level of luciferase expression. Many Clones, for example, about twenty, may be compared to each other with respect to luciferase activity. […] Particular parameters for Clones are studied prior to selection for use in post-transcriptional, high-throughput screening (HTS). […]
Chemical libraries in excess of 150,000 compounds are screened by HTS with a Clone containing the monocistronic reporter construct, pLuc/vegf5′+3′UTR. […] Data is analyzed as a normal distribution, which is apparent from graphical and statistical analysis of skewness and kurtosis. […]

EC50 (FGF-2 and IGF-1): 200 to 2000 nM
Compound: COc1ccc(C[C@H](N)C(=O)N[C@H]2[C@@H](O)[C@H](n3cnc4c(N(C)C)ncnc43)O[C@@H]2CO)cc1 [puromycin]
difference in inhibition of luciferase expression between B9 and B12 cell lines (VEGF UTRs): No difference
